# Marks after values point to notes of the source that are not given here.
# How the values were obtained:
# 3T3-L1 adipocytes = test: Insulin-stimulated glucose uptake (2-deoxy-D-glucose) in differentiated 3T3-L1 adipocytes; type: cell-based
# Excerpt: Adipocyte differentiation was then induced using standard protocol. […] The maintenance medium was changed every 3 days until the cells were utilized for experimentation. […] In each instance, the medium was changed twice a day. […]
# [1] = tested on: high cholesterol-fed rats; test: Changes in plasma lipid parameters (high cholesterol-fed rats); type: in vivo; conditions: 10 mg/kg
# Method: Blood was collected and analyzed for non-fasted total cholesterol and free fatty acid levels. The results are calculated as the percent reduction relative to vehicle control.
# hPPAR-δ = biological target: T1, hPPAR-δ (Homo sapiens, UniProt Q03181); test: In vitro hPPAR-δ transactivation (GAL4 fusion, SPRAT cells, luciferase); type: cell-based; conditions: for EC50: 6 hours, read-out: PPAR-δ EC50; for PPAR-δ % Max: relative to TTA = 100
# T1 construct: expressed in transfected cells
# T1 sequence (Q03181 211-439 limits assumed): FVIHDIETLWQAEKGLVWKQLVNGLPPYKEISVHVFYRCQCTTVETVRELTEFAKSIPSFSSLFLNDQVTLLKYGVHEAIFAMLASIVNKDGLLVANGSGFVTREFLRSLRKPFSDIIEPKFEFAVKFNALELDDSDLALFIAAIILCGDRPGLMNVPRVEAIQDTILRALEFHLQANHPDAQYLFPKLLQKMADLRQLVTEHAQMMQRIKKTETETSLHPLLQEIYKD
# db/db mice [2] = test: Oral glucose tolerance test (OGTT) in db/db mice; type: in vivo
# Method: OGTT was performed in db/db mice after dosing of either 3 or 10 mg/kg of the compound of Example 1 for 9 days. The animals were dosed with 10% glucose in water in a volume of 10 mL/kg. Blood samples were taken at 0, 30, 60 and 120 min post dose.
# hPPAR-α = biological target: T2, hPPAR-α (Homo sapiens, UniProt Q07869); test: In vitro hPPAR-α transactivation (GAL4 fusion, SPRAT cells, luciferase); type: cell-based
# T2 construct: expressed in transfected cells
# T2 sequence (Q07869 239-466 limits assumed): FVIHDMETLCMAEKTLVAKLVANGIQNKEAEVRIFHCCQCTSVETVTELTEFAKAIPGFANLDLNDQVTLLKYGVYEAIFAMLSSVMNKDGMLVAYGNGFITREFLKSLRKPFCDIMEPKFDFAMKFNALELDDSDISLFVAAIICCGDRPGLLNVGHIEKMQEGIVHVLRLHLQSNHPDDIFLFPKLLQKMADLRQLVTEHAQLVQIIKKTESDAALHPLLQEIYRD
# hPPAR-γ = biological target: T3, hPPAR-γ (Homo sapiens, UniProt P37231); test: In vitro hPPAR-γ transactivation (GAL4 fusion, SPRAT cells, luciferase); type: cell-based
# T3 construct: expressed in transfected cells
# T3 sequence (P37231 238-503 limits assumed): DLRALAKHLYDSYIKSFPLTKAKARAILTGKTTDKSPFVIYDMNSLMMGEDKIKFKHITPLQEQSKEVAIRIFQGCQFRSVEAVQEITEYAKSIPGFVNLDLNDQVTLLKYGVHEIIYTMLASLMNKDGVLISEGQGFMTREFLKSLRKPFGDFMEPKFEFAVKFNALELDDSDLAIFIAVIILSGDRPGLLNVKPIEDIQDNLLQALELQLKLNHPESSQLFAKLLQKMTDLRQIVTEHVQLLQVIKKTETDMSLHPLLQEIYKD
# db/db mice [3] = test: Efficacy test for blood glucose and plasma lipid lowering (db/db mice); type: in vivo; conditions: male db/db mice, oral; for Insulin % max reduction d7: day 7, vs vehicle; for BG % max reduction d14 / Fatty Acid % max reduction d14 / TG % max reduction d14 / Insulin % max reduction d14: day 14, vs vehicle
# Excerpt: Mice used in this study were standard model of type II diabetes developed by Jackson Laboratories (Bar Harbor, Me.). Mice (male, 8-wk-old db/db) were housed six per cage in hanging wire bottom cages with standard laboratory conditions. The mice had free access to normal chow (Purina Rodent Chow) and water. At the age of 8-10 weeks, the mice were bled from the tail for glucose matching among the groups (n=6 per group). To test the PPAR-γ effect of the compounds of Examples 1, 2, 3, 4 and 6, mice were then dosed orally with vehicle (CMC) or with two different concentrations (3 or 10 mg/kg/d) of each compound for 7-14 days. Each compound of Examples 1, 2, 3, 4 and 6 was dosed as suspension in 0.5% CMC+0.2% Tween 80 in sterile water. Fresh suspension was prepared for 8 days dosing and kept in a refrigerator. The suspension was administered orally by gavage daily in the morning. The control group received vehicle (dose 10 mL/kg). Blood glucose concentrations (in fed state) were monitored at basal and 3 h post dose on day 14 either by putting a drop of blood from tails on a glucose strip for analysis by a glucometer or using a 10 μL plasma sample in a YSI (Yellow Spring Instruments, OH) analyzer. […] The results are expressed in Table 2 as % maximal reduction that is achieved relative to vehicle treated control group. Animals having more than 300 mg/dL of blood glucose were used for testing. Statistical significance (* P<0.05; ** P<0.01) is given versus the appropriate sample in vehicle treated animals.
# [4] = tested on: human ApoA1 transgenic mice; test: Changes in plasma ApoA1, HDL cholesterol and TG levels (human ApoA1 transgenic mice); type: in vivo; conditions: for ApoA1 % increase / HDL Cholesterol % increase / TG % decrease: oral, 8 days
# Method: Homozygous human ApoA1 transgenic mouse strains (C57BL/6-TgN1Rub) were purchased from Jackson Laboratories (Bar Harbor, Me.). The mice were grouped by six and housed in hanging wire bottom cages with standard laboratory conditions. The mice had free access to normal chow (Purina Rodent Chow) and water. The grouped mice were then dosed orally with vehicle (CMC) or with different concentrations of the compound of Example 1 (3, 10 or 30 mg/kg/d) for 8 days. Compounds were dosed as suspension in 0.5% CMC+0.2% Tween 80 in sterile water. Fresh suspension was prepared for 8 days dosing and kept in a refrigerator. The suspension was administered orally by gavage daily in the morning. The control group received vehicle (dose 10 mL/kg). Blood samples were collected by cardiac puncture, centrifuged and analyzed for ApoA1, HDL cholesterol, and triglyceride.
# [5] = oral, 4 days, vs vehicle control
compound,measurement,setting,value
"CCOC(Cc1ccc(OCCn2c(C(F)(F)F)nc3ccccc32)cc1)C(=O)O (racemic) [Example 1, 2-ethoxy-3-(4-{2-[2-(trifluoromethyl)-1H-benzimidazol-1-yl]ethoxy}phenyl)propanoic acid]",glucose transport activity,"3T3-L1 adipocytes; 1 μM compound in the presence of 100 nM insulin, 48 h, FIG. 1",significantly increased
same,glucose transport,"3T3-L1 adipocytes; separate treatment: 1 μM compound alone or 100 nM insulin alone, 48 h, 3T3-L1 adipocytes",increase in glucose transport
same,plasma total cholesterol and free fatty acid levels (in words),[1],significantly reduced
same,Free Fatty Acid % reduction,[1]; [5],68** %
same,Total Cholesterol % reduction,[1]; [5],69** %
same,EC50,hPPAR-δ,50 µM
same,PPAR-δ % Max,hPPAR-δ,68%
same,"AUC for blood glucose, reduction vs vehicle control",db/db mice [2]; 3 mg/kg for 9 days,49%
same,"AUC for blood glucose, reduction vs vehicle control",db/db mice [2]; 10 mg/kg for 9 days,48%
same,EC50,"hPPAR-α; 6 hours, read-out: PPAR-α EC50",17.2 µM
same,PPAR-α % Max,hPPAR-α; relative to Reference (α) = 100,44%
same,EC50,"hPPAR-γ; 6 hours, read-out: PPAR-γ EC50",0.04 µM
same,PPAR-γ % Max,hPPAR-γ; relative to Rosiglitazone = 100,62%
same,Insulin % max reduction d7,db/db mice [3]; 3 mg/kg,85** (d7) %
same,BG % max reduction d14,db/db mice [3]; 3 mg/kg,69** %
same,Fatty Acid % max reduction d14,db/db mice [3]; 3 mg/kg,47** %
same,TG % max reduction d14,db/db mice [3]; 3 mg/kg,52** %
same,Insulin % max reduction d7,db/db mice [3]; 10 mg/kg,87** (d7) %
same,BG % max reduction d14,db/db mice [3]; 10 mg/kg,73** %
same,Fatty Acid % max reduction d14,db/db mice [3]; 10 mg/kg,72** %
same,TG % max reduction d14,db/db mice [3]; 10 mg/kg,55** %
same,ApoA1 % increase,[4]; 3 mg/kg,52%
same,HDL Cholesterol % increase,[4]; 3 mg/kg,47* %
same,TG % decrease,[4]; 3 mg/kg,52* %
same,ApoA1 % increase,[4]; 10 mg/kg,137%
same,HDL Cholesterol % increase,[4]; 10 mg/kg,73** %
same,TG % decrease,[4]; 10 mg/kg,56** %
same,ApoA1 % increase,[4]; 30 mg/kg,186%
same,HDL Cholesterol % increase,[4]; 30 mg/kg,51** %
same,TG % decrease,[4]; 30 mg/kg,67** %
same,HDL-cholesterol (in words),[4]; through increase in human ApoA1 levels,greatly increased HDL-cholesterol
"CCOC(Cc1ccc(OCCn2c(C(F)(F)C(F)(F)F)nc3ccccc32)cc1)C(=O)O (stereo not drawn) [Example 2, 2-ethoxy-3-(4-{2-[2-(pentafluoroethyl)-1H-benzimidazol-1-yl]ethoxy}phenyl)propanoic acid]",BG % max reduction d14,db/db mice [3]; 3 mg/kg,57** %
same,Fatty Acid % max reduction d14,db/db mice [3]; 3 mg/kg,45** %
same,Insulin % max reduction d14,db/db mice [3]; 3 mg/kg,59** (d14) %
same,TG % max reduction d14,db/db mice [3]; 3 mg/kg,50** %
same,BG % max reduction d14,db/db mice [3]; 10 mg/kg,75** %
same,Fatty Acid % max reduction d14,db/db mice [3]; 10 mg/kg,71** %
same,Insulin % max reduction d14,db/db mice [3]; 10 mg/kg,75** (d14) %
same,TG % max reduction d14,db/db mice [3]; 10 mg/kg,70** %
"CCOC(Cc1ccc(OCCn2c(C(F)(F)F)nc3cc(C(F)(F)F)ccc32)cc1)C(=O)O (stereo not drawn) [Example 3, 3-(4-{2-[2,5-bis(trifluoromethyl)-1H-benzimidazol-1-yl]ethoxy}phenyl)-2-ethoxypropanoic acid]",BG % max reduction d14,db/db mice [3]; 3 mg/kg,77** %
same,Fatty Acid % max reduction d14,db/db mice [3]; 3 mg/kg,49** %
same,Insulin % max reduction d14,db/db mice [3]; 3 mg/kg,76** (d14) %
same,TG % max reduction d14,db/db mice [3]; 3 mg/kg,61** %
same,BG % max reduction d14,db/db mice [3]; 10 mg/kg,77** %
same,Fatty Acid % max reduction d14,db/db mice [3]; 10 mg/kg,76** %
same,Insulin % max reduction d14,db/db mice [3]; 10 mg/kg,79** (d14) %
same,TG % max reduction d14,db/db mice [3]; 10 mg/kg,77** %
"CCOC(Cc1ccc(OCCn2c(C(F)(F)F)nc3cc(F)ccc32)cc1)C(=O)O (stereo not drawn) [Example 4, 3-(4-{2-[5-fluoro-2-(trifluoromethyl)-1H-benzimidazol-1-yl]ethoxy}phenyl)-2-ethoxypropanoic acid]",BG % max reduction d14,db/db mice [3]; 3 mg/kg,68** %
same,Fatty Acid % max reduction d14,db/db mice [3]; 3 mg/kg,25** %
same,Insulin % max reduction d14,db/db mice [3]; 3 mg/kg,79** (d14) %
same,TG % max reduction d14,db/db mice [3]; 3 mg/kg,64** %
same,BG % max reduction d14,db/db mice [3]; 10 mg/kg,73** %
same,Fatty Acid % max reduction d14,db/db mice [3]; 10 mg/kg,27** %
same,Insulin % max reduction d14,db/db mice [3]; 10 mg/kg,79** (d14) %
same,TG % max reduction d14,db/db mice [3]; 10 mg/kg,58** %
"CCO[C@@H](Cc1ccc(OCCn2c(C(F)(F)F)nc3ccccc32)cc1)C(=O)O [Example 6, (2S)-3-{4-[2-(2-trifluoromethyl-benzoimidazol-1-yl)-ethoxy]-phenyl}-2-ethoxy-propionic acid]","insulin-stimulated glucose uptake, enantio-dependency","3T3-L1 adipocytes; each enantiomer vs racemate, FIG. 2",statistically significant difference (P<0.01) over racemate
same,Insulin % max reduction d7,db/db mice [3]; 3 mg/kg,87** (d7) %
same,BG % max reduction d14,db/db mice [3]; 3 mg/kg,53** %
same,Fatty Acid % max reduction d14,db/db mice [3]; 3 mg/kg,54** %
same,TG % max reduction d14,db/db mice [3]; 3 mg/kg,62** %
same,Insulin % max reduction d7,db/db mice [3]; 10 mg/kg,86** (d7) %
same,BG % max reduction d14,db/db mice [3]; 10 mg/kg,73** %
same,Fatty Acid % max reduction d14,db/db mice [3]; 10 mg/kg,60** %
same,TG % max reduction d14,db/db mice [3]; 10 mg/kg,66** %
"CCCCCCCCCCCCCCSCC(=O)O [TTA (δ), reference compound]",EC50,hPPAR-δ,38 µM
same,PPAR-δ % Max,hPPAR-δ,100%

# Source: patent publication US7456293B2, “Substituted carboxylic acid derivatives for the treatment of diabetes and lipid disorders, their preparation and use” (SK Holding Co., Ltd, priority 2005, dated 2008)
